Each block holds one compound with its values, some of them ahead of it. Where a SMILES comes first, the peptide text is derived from it. [ ]: non-standard residue; d: D form. The star is where a group is joined. ξ: configuration not given here. ξαMeP = CC1(C(=O)O)CCCN1; PhAc = O=C(Cc1ccccc1)*
Tests used:
[1] = target: T1, NTMT1 (Homo sapiens, UniProt Q9BV86); assay: SAH hydrolase; format: biochemical; conditions: for fold loss in inhibition compared to 6 (BM30): IC50 ratio vs BM30; for inhibitory activity for NTMT1 (in words): up to 100 μM
T1 sequence (Q9BV86 1-223): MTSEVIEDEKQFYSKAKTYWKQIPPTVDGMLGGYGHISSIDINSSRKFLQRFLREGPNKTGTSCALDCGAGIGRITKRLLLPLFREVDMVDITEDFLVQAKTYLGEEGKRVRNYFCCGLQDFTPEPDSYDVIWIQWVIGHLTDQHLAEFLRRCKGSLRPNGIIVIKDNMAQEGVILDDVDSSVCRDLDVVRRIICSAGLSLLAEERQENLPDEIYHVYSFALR

[2] = target: PRMT1 (Homo sapiens, UniProt Q99873); assay: SAH hydrolase-coupled fluorescence selectivity assay, PRMT1; format: biochemical
[3] = tested on: panel of 41 MTases (NTMT1/2, PKMTs, PRMTs, DNMTs); assay: Selectivity panel of 41 MTases; format: biochemical
[4] = target: T1, NTMT1; assay: Inhibition mechanism, SAHH-coupled fluorescence assay; format: biochemical
[5] = tested on: HCT116 cells; assay: Cell permeability evaluation by MALDI-MS; format: cell-based; conditions: 100 μM, listed as BM30
[6] = target: T2, G9a (Homo sapiens, UniProt Q96KQ7); assay: SAH hydrolase-coupled fluorescence selectivity assay, G9a; format: biochemical
T2 sequence (Q96KQ7 1-1210): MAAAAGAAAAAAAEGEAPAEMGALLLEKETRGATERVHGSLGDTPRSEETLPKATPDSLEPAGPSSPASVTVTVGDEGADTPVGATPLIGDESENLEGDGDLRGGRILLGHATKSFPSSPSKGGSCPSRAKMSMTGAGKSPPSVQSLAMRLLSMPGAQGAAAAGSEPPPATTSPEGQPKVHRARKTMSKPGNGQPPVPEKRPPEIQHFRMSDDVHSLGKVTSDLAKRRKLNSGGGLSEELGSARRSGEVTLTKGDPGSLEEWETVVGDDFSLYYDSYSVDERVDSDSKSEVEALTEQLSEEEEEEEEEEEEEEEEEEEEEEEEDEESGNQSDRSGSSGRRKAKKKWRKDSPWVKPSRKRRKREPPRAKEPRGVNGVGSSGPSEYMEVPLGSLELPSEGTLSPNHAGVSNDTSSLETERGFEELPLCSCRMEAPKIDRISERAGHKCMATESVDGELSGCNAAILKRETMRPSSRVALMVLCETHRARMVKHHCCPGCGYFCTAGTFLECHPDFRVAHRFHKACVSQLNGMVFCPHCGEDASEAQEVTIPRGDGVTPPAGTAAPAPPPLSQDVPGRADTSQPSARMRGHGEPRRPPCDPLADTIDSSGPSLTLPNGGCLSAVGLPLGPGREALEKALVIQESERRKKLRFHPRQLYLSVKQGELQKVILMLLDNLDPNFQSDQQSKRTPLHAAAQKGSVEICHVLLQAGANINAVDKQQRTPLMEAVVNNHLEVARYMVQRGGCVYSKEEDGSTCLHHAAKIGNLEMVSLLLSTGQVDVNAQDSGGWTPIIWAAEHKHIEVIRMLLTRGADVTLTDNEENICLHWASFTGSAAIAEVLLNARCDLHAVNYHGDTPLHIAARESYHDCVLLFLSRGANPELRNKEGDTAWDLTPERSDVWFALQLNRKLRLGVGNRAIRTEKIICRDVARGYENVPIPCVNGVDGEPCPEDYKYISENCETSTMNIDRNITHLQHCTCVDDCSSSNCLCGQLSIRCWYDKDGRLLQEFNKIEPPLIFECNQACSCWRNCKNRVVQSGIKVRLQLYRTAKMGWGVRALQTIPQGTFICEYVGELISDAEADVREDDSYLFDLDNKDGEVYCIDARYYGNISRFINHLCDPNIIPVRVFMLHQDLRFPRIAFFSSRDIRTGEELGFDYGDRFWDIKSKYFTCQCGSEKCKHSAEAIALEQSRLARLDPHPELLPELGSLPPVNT

[7] = target: T1, NTMT1; conditions: read-out: Kd for NTMT1; peptide substrate; cited from earlier work

Chain of PRMT1 (Q99873 whole entry, species assumed): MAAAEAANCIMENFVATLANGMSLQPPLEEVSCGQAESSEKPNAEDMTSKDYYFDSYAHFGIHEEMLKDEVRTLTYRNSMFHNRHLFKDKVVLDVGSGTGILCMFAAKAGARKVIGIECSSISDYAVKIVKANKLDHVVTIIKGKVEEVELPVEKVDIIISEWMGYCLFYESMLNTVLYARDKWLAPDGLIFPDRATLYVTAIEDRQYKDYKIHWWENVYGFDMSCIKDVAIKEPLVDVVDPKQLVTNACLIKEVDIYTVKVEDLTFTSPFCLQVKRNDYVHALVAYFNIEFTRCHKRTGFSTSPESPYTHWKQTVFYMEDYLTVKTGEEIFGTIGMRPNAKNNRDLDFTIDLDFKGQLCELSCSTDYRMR

Compound: N=C(N)NCCC[C@H](NC(=O)[C@H](CCCCN)NC(=O)[C@@H]1CCCN1C(=O)Cc1ccc(O)cc1)C(N)=O [Compound 6]
fold increased activity compared to 5 ([1]; IC50 ratio vs compound 5): approximately 7 fold | IC50 [2]: > 100000 nM | inhibition of NTMT1 versus NTMT2 in the panel ([3]; 100 μM): comparable inhibition against both NTMT1 and NTMT2 | inhibition against the remaining 39 MTases ([3]; 100 μM, duplicates): very marginal inhibition | selectivity for NTMT1/2 over other MTases of the panel ([3]; compared to PKMTs, PRMTs and DNMTs): over 100 fold | inhibition pattern with respect to peptide substrate RCC1-6 (SPKRIA) ([4]; varying RCC1-6, fixed SAM): competitive | inhibition pattern with respect to cofactor SAM ([4]; varying SAM, fixed RCC1-6): noncompetitive | cellular level / penetration by MS detection [5]: did not display any

Compound: CC1(C(=O)N[C@@H](CCCCN)C(=O)N[C@@H](CCCNC(=N)N)C(N)=O)CCCN1C(=O)Cc1ccccc1 (stereo partly drawn) [Compound 13] (PhAc-[ξαMeP]-Lys-Arg-NH2)
inhibitory activity for NTMT1 (in words) [1]: completely lost the inhibitory activity

Compound: N=C(N)NCCC[C@H](NC(=O)[C@H](CCCCN)NC(=O)c1ccccc1NC(=O)Cc1ccc(O)cc1)C(N)=O [Compound 15]
inhibitory activity for NTMT1 (in words) [1]: did not exhibit any inhibitory activity

Compound: NCCCC[C@H](NC(=O)[C@H](CCCCN)NC(=O)[C@@H]1CCCN1C(=O)Cc1ccc(O)cc1)C(N)=O [Compound 17]
inhibitory activity for NTMT1 (in words) [1]: negligible difference in inhibition compared to BM30

Compound: C[C@@H](O)[C@H](NC(=O)[C@H](CCCCN)NC(=O)[C@@H]1CCCN1C(=O)Cc1ccc(O)cc1)C(N)=O [Compound 18]
fold loss in inhibition compared to 6 (BM30) [1]: 5 fold

Compound: NCCCC[C@H](NC(=O)[C@@H]1CCCN1C(=O)Cc1ccc(O)cc1)C(=O)NCC(N)=O [Compound 20]
fold loss in inhibition compared to 6 (BM30) [1]: ~14 fold

Compound: YPKRIA
Kd [7]: 100 nM

Next, values leading:

fold loss in inhibition compared to 6 (BM30) [1]: 5 fold
Compound: N=C(N)NCCC[C@H](NC(=O)[C@H](CCCCN)NC(=O)[C@@H]1CCCN1C(=O)CCc1ccc(O)cc1)C(N)=O [Compound 10]

fold loss in inhibition compared to parent compound 7 ([1]; IC50 ratio vs compound 7): 3 fold
Compound: N=C(N)NCCC[C@H](NC(=O)[C@H](CCCCN)NC(=O)[C@@H]1CCCN1C(=O)CCc1ccc(N)cc1)C(N)=O [Compound 11]

inhibitory activity for NTMT1 (in words) [1]: did not show any inhibitory activity
Compound: N=C(N)NCCC[C@H](NC(=O)[C@H](CCCCN)NC(=O)[C@@H]1CCCN1CCc1ccc(O)cc1)C(N)=O [Compound 12]

inhibitory activity for NTMT1 (in words) [1]: did not exhibit any inhibitory activity
Compound: N=C(N)NCCC[C@H](NC(=O)[C@H](CCCCN)NC(=O)c1cccc(NC(=O)Cc2ccc(O)cc2)c1)C(N)=O [Compound 14]

fold loss in inhibition compared to 6 (BM30) [1]: 5 fold
Compound: C[C@H](NC(=O)[C@H](CCCCN)NC(=O)[C@@H]1CCCN1C(=O)Cc1ccc(O)cc1)C(N)=O [Compound 19]

fold loss in inhibition compared to 6 (BM30) [1]: 18 fold
Compound: NCCCC[C@H](NC(=O)[C@@H]1CCCN1C(=O)Cc1ccc(O)cc1)C(N)=O [Compound 21]

inhibition for G9a (in words) [6]: exhibited inhibition
Compound: N=C(N)NCCC[C@@H](NC(=O)[C@H](CCCCN)NC(=O)[C@@H]1CCCN1C(=O)Cc1ccc(O)cc1)C(N)=O [Compound 22]

Reference: publication PMC7486280 (Journal of medicinal chemistry, 2020)
